Measurements published in article PMC6150378, “Chemical Constituents from the Flower of Hosta plantaginea with Cyclooxygenases Inhibition and Antioxidant Activities and Their Chemotaxonomic Significance” (Molecules : A Journal of Synthetic Chemistry and Natural …, 2017).

Legend:
ovine COX-1 = molecular target: T1, ovine COX-1 (Ovis aries, UniProt P05979)
T1 sequence (P05979 25-600): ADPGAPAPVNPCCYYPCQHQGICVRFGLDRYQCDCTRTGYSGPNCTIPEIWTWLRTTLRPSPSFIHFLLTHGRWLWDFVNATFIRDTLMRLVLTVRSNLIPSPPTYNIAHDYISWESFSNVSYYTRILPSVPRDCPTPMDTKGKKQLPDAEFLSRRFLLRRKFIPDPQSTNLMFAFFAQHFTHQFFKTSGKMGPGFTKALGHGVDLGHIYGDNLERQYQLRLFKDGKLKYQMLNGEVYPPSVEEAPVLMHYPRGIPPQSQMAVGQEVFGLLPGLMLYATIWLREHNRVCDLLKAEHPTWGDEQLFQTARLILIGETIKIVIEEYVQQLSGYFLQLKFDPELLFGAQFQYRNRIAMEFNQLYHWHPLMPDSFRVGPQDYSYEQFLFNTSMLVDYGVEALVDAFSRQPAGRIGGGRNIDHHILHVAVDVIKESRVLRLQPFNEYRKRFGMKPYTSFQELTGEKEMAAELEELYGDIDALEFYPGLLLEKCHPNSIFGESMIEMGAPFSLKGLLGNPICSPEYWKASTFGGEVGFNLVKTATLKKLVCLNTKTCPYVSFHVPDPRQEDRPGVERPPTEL
Description: (§1) 2,2-Di-phenyl-1-picrylhydrazyl (DPPH) (Sigma Corporation, Ronkonkoma, New York, NY, USA), L-cysteine methyl ester and o-tolyl isothiocyanate (Meilun Biotech. Co. Ltd., Dalian, China), D-glucose, and L-glucose (Energy Chemical, Shanghai, China) were used. COX inhibitor screening assay kit was purchased from Cayman Chemical Company (Ann Arbor, MI, USA).

[1] = Antioxidant assay: DPPH radical-scavenging activity; details: DPPH method; regression using five concentrations (500, 200, 100, 50, 25 μM); 517 nm, 40 min at 30 °C
Description: DPPH radical-scavenging activity of the sample was measured as previously described with minor modifications. In a 96-well microplate, 150 μL of DPPH solution (200 μM) was added to 50 μL of the test sample in methanol at different concentrations. The OD values of the reaction mixtures was recorded at 517 nm using a Multiskan Go (Thermo Fisher Scientific, Inc., Waltham, MA, USA) for 40 min at 30 °C. The DPPH radical scavenging activity was calculated by the following equation: DPPH scavenging activity % = […], where Asample represents the absorbance of sample and DPPH, Ablank represents the absorbance of sample and CH3OH, Acontrol represents the absorbance of DPPH and CH3OH. […] L-ascorbic acid was used as the positive control in this experiment. All tests were run in triplicate, and values obtained from experiments were averaged.

ovine COX-2 = molecular target: T2, ovine COX-2 (Ovis aries, UniProt P79208)
T2 sequence (P79208 17-603): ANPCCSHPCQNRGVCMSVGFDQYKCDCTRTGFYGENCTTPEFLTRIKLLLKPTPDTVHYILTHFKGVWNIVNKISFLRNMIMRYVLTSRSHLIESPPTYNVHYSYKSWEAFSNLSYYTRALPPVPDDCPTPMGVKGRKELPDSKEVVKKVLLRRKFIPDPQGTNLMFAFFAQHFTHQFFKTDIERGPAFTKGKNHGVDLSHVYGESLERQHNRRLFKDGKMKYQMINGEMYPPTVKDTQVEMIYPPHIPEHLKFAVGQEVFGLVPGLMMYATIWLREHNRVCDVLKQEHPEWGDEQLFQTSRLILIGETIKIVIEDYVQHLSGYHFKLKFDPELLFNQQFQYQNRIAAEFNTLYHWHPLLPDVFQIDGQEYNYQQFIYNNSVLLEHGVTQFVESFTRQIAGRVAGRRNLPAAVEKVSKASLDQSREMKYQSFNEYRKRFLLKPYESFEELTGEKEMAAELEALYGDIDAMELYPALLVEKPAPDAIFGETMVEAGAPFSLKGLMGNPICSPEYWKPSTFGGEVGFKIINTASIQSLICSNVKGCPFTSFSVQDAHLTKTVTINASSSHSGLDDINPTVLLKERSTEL
Description: as §1

Compound | IC50 (ovine COX-1) | IC50 [1] | IC50 (ovine COX-2)
COc1cc(O[C@@H]2O[C@H](CO)[C@@H](O)[C@H](O)[C@H]2O)cc2c1C(=O)C[C@@H](c1ccc(O)cc1)O2 [Compound 1, hostaflavanone A] | 21.6 ± 1.2 µM | 83.2 ± 3 µM | 45.4 ± 3.3 µM
OC[C@H]1O[C@@H](OCCc2ccccc2)[C@H](O)[C@@H](O)[C@@H]1O [Compound 4, phenethyl-O-β-D-glucopyranoside] | 15.5 ± 0.6 µM | 282 ± 5.2 µM | 38.2 ± 3.9 µM
OC[C@H]1O[C@@H](OC[C@H]2O[C@@H](OCCc3ccccc3)[C@H](O)[C@@H](O)[C@@H]2O)[C@H](O)[C@@H](O)[C@@H]1O [Compound 5, phenethanol-β-D-gentiobioside] | 38.4 ± 1.3 µM | 257 ± 13.8 µM | 31.7 ± 2.9 µM
C[C@@H]1O[C@@H](OC[C@H]2O[C@@H](OCCc3ccccc3)[C@H](O)[C@@H](O)[C@@H]2O)[C@H](O)[C@H](O)[C@H]1O [Compound 6, phenethyl-O-rutinoside] | 41.2 ± 1.5 µM | 275 ± 14.8 µM | 35.4 ± 1.6 µM
O=C1O[C@H]([C@@H](O)CO)C(O)=C1O [L-ascorbic acid, reference compound] |  | 33.9 ± 1.1 µM | 
